In patent publication US8507539B2, “Potassium channel blockers and uses thereof” (Bionomics Limited, priority 2008, dated 2013):

Target: hKv1.3 (Homo sapiens, UniProt P22001)
Experiment: Whole-cell patch-clamp block of Kv1.3 current in CHO cells stably expressing hKv1.3
Format: cell-based
Settings: CHO cells stably expressing hKv1.3, whole-cell patch clamp; reported as ranges; read-out: IC50 (Kv1.3)
Experimental: The effectiveness of the generated compounds in blocking the Kv1.3 current was assayed on CHO cells stably expressing hKv1.3. Cells were grown in F12 Kaighns' medium supplemented with 10% fetal calf serum, 2 mM L-glutamine, 1 mM Na^+ pyruvate, 100 units/ml penicillin, 100 Fg/ml streptomycin and 500 μg/ml G418 (to keep them under selection pressure). Kv1.3 currents were measured using the whole-cell configuration of the patch-clamp technique and were evoked by 500 ms depolarising voltage pulses to +40 mV from a holding potential of −80 mV at 30 sec intervals. Cells were continuously bathed in Ringers solution containing (mM): 160 NaCl, 4.5 KCl, 2.5 CaCl2, 1 MgCl2, 10 HEPES, pH 7.4, 290-310 mOsm. The internal (pipette) solution contained (mM): 134 KF, 2 MgCl2, 10 HEPES, 10 EGTA (pH 7.2, 290-310 mOsm). Series resistance compensation (60-80%) was applied when the peak current amplitude exceeded 2 nA. Compounds initially dissolved in DMSO were diluted in bath solution (final DMSO concentration 0.5%) and applied directly to the recording chamber at increasing concentrations allowing ample time for steady state block to be achieved between each concentration. Each compound was tested at 4-5 different concentrations in triplicate. IC50 values were determined by fitting the average normalised reduction of the current integral to the Hill equation.

hKv1.3, sequence (P22001 whole entry): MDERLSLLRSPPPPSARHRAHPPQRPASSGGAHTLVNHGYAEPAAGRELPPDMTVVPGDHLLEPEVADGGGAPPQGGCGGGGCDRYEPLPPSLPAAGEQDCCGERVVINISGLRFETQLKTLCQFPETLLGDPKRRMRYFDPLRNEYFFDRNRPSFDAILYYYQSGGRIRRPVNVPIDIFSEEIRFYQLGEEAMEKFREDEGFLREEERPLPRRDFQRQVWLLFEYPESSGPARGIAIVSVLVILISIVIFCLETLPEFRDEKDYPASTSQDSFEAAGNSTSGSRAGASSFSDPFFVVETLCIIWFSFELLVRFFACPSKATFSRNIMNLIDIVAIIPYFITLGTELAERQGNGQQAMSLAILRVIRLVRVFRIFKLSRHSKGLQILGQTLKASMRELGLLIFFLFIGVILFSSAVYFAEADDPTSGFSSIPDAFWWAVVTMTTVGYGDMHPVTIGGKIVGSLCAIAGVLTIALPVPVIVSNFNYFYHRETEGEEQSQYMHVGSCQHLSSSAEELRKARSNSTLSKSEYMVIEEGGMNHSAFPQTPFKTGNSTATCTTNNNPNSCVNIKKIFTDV

Compound	IC50
CC(=O)c1c(OCCN2CCOCC2)c(OCCCc2ccccc2)c2ocnc2c1C [Example 1i, 5-Acetyl-4-methyl-6-(2-morpholinoethoxy)-7-(3-phenylpropoxy)-benzo[d]oxazole]	50 to 200 nM
CC(=O)c1c(OCCn2nnnc2N)c(OCCC(C)c2ccc(F)cc2)c2oc(C)nc2c1C (stereo not drawn) [Example 11b, 5-Acetyl-6-[2-(5-amino-tetrazol-1-yl)-ethoxy]-7-[3-(4-fluorophenyl)butoxy]-2,4-dimethyl-benzooxazole]	50 to 200 nM
CC(=O)c1c(OCCc2ccccn2)c(OCCC(C)c2ccc(F)cc2)c2oc(C)nc2c1C (stereo not drawn) [Example 8, 5-Acetyl-7-[3-(4-fluorophenyl)butoxy]-2,4-dimethyl-6-(2-pyridin-2-yl-ethoxy)-benzooxazole]	< 50 nM
CC(=O)c1c(OCCn2ccnc2)c(OCCC(C)c2ccc(F)cc2)c2ocnc2c1C (stereo not drawn) [Example 5, 5-Acetyl-7-[3-(4-fluorophenyl)butoxy]-4-methyl-6-(2-N-imidazolyl-ethoxy)benzooxazole]	< 50 nM
CC(=O)c1c(OCCN(C)C)c(OCCC(C)c2ccc(F)cc2)c2ocnc2c1C (stereo not drawn) [Example 4b, 5-Acetyl-7-[3-(4-fluorophenyl)butoxy]-4-methyl-6-(2-N,N-dimethylamino-ethoxy)benzooxazole]	200 to 1000 nM
CC(=O)c1c(OCCc2ccccn2)c(OCCC(C)c2ccc(F)cc2)c2ocnc2c1C (stereo not drawn) [Example 3, 5-Acetyl-7-[3-(4-fluorophenyl)butoxy]-4-methyl-6-(2-pyridin-2-yl-ethoxy)benzooxazole]	< 50 nM
CC(=O)c1c(OCCN2CCOCC2)c(OCCC(C)c2ccc(F)cc2)c2oc(C)nc2c1Cl (stereo not drawn) [Example 38h, 5-Acetyl-4-chloro-7-(3-(4-fluorophenyl)butoxy)-6-(2-(morpholin-4-yl)ethoxy)-2-methyl-benzo[d]oxazole]	50 to 200 nM
CC(=O)c1c(OCCN2CCOCC2)c(OCCC(C)c2ccc(F)cc2)c2oc(C3CC3)nc2c1C (stereo not drawn) [Example 35d, 5-Acetyl-7-[3-(4-fluorophenyl)butoxy]-2-cyclopropyl-4-methyl-6-(2-morpholin-4-yl-ethoxy)-benzo[d]oxazole]	50 to 200 nM
CC(=O)c1c(OCCN)c(OCCC(C)c2ccc(F)cc2)c2oc(C)nc2c1C (stereo not drawn) [Example 22, 5-Acetyl-6-(2-aminiumethoxy)-7-[3-(4-fluorophenyl)butoxy]-2,4-dimethyl-benzo[d]oxazole chloride]	200 to 1000 nM
CC(=O)c1c(OCCN2CCOCC2)c(OCCC(C)c2ccc(F)cc2)c2ocnc2c1C (stereo not drawn) [Example 2d, 5-Acetyl-7-[3-(4-fluorophenyl)butoxy]-4-methyl-6-(2-morpholin-4-yl-ethoxy)benzooxazole]	< 50 nM
CC(=O)c1c(OCCN2CCOCC2)c(OCCC(C)c2ccc(F)cc2)c2oc(C)nc2c1C (stereo not drawn) [Example 6c, 5-Acetyl-7-[3-(4-fluorophenyl)butoxy]-2,4-dimethyl-6-(2-morpholin-4-yl-ethoxy)-benzooxazole]	< 50 nM
CC(=O)c1c(OCCN=C(N(C)C)N(C)C)c(OCCC(C)c2ccc(F)cc2)c2oc(C)nc2c1C (stereo not drawn) [Example 23, 5-Acetyl-6-(2-(N,N,N′,N′-tetramethylguanidinium)ethoxy)-7-[3-(4-fluorophenyl)butoxy]-2,4-dimethyl-benzo[d]oxazole chloride]	200 to 1000 nM
CC(=O)c1c(OCCN2CCOCC2)c(OCCC(C)c2ccc(F)cc2)c2oc(C(F)(F)F)nc2c1C (stereo not drawn) [Example 28c, 5-Acetyl-7-[3-(4-fluorophenyl)butoxy]-4-methyl-6-(2-morpholin-4-yl-ethoxy)-2-trifluoromethyl-benzooxazole]	50 to 200 nM
CC(=O)c1c(OCCn2nnc(N)n2)c(OCCC(C)c2ccc(F)cc2)c2oc(C)nc2c1C (stereo not drawn) [Example 11a, 5-Acetyl-6-[2-(5-aminotetrazol-2-yl)-ethoxy]-7-[3-(4-fluorophenyl)butoxy]-2,4-dimethyl-benzooxazole]	< 50 nM
CC(=O)c1c(OCCN2CCC(=O)CC2)c(OCCC(C)c2ccc(F)cc2)c2oc(C)nc2c1C (stereo not drawn) [Example 12, 1-(2-{5-Acetyl-7-[3-(4-fluorophenyl)butoxy]-2,4-dimethyl-benzooxazol-6-yloxy}-ethyl)-piperidin-4-one]	50 to 200 nM
